One test concerns HCT-15 colon cells. Nature of the test: Antiproliferative assay, methylene blue staining. It counts as cell-based. The following applies: Homo sapiens, read-out: IC50 antiproliferative activity. From the text: The following cell lines are obtained from the American Type Culture Collection (ATCC, Rockville, Md., USA): human colon carcinomas HCT-15 (CCL 225) and HCT-116 (CCL 247), human lung adenocarcinoma A549 (CCL 185), human large cell carcinoma NCI-H460 (HTB 177), estrogen-independent breast carcinoma MDA-MB-231 ([…]), prostate cancer cell line Du 145 (HTB 81). The human KB-31 (drug-sensitive) and KB-8511 (multidrug-resistant, Pgp170 overexpressing) epidermoid carcinoma cells are obtained from Dr. R. M. Baker, Roswell Park Memorial Institute (Buffalo, N.Y., USA) and have been previously described (Akiyam S, et al. Somatic Cell Molec Genetics 1985;11:117-126 and Fojo A, et al., Cancer Res. […];45:3002-3007). The human metastatic prostate carcinoma PC-3M is obtained from Dr. I. J. Fidler (MD Anderson Cancer Center, Houston, Tex., USA). The estrogen-dependent human breast carcinoma cell line MCF-7/ADR (multidrug resistant) is a subline of the MCF-7 cell line (ATCC HTB 22) and is obtained from Dr. D. Fabbro (Novartis Pharma AG, Basel, Switzerland) and has been previously described (Blobe G C, et al. J. Biol. Chem. 1993; 268:658-664).
For the antiproliferative assays, cells are seeded at 1.5×10^3/well into 96-well microtiter plates and incubated overnight. Compounds are added in serial dilutions on day 1. The plates are than incubated for additional 5 days. This allowed the control cultures to undergo at least 3 cell divisions. After incubation the cells are fixed with 3.3% v/v glutaraldehyde, washed with water and stained with 0.05% w/v methylene blue. After washing, the dye is eluted with 3% v/v HCl and the optical density measured at 665 nm with a SpectraMax 340 (Bucherer, Basel, Switzerland). IC50 values are determined by a computerized system (SoftPro, Bucherer, Basel, Switzerland) using the formula (OD test—OD start)/(OD control—OD start)×100. IC50 is defined as the drug concentration which leads to 50% of cells per well compared to control cultures (100%) at the end of the incubation period.

The next test relates to PTX-22 cells. Nature of the test: Antiproliferative assay (MTS). It counts as cell-based, human. On the procedure: A549, a human non-small cell lung carcinoma and MDA-MB-435, a human breast carcinoma, used in this study are obtained from the American Type Culture Collection (ATCC, Rockville, Md., USA). MDA-MB-435 cells are maintained in MEM containing 10% FBS, 1% sodium pyruvate, 1% MEM non-essential amino acids, and 15 mM HEPES (pH=7.4). A549 cells are maintained in RPMI 1640 containing 10% FBS. 1A9, a single-cell clone of the human ovarian carcinoma cell line A2780 and PTX22, the paclitaxel-resistant subline, used in this stdy are obtained from M. Wartman (Novartis Pharmauticals). 1A9 cells and PTX22 cells are maintained in RPMI 1640 supplemented with 10% FBS. PTX22 maintenance media also contained 15 ng/mL paclitaxel and 5 μg/mL verapamil. Drug is removed from the media for 5-7 days before use in an experiment. All maintenance media contained 100 units/mL penicillin and 100 μg/mL streptomycin.
Cell lines are trypsinized and counted using a Coulter counter. Cells were plated in 96 well plates (190 μL/well) at the following densities: 1,000 cells/well for A549 and 3,000 cells/well for MDA-MB-435. The number of cells plated results in cell densities of 75-90% confluence by the time of harvest. Plates are seeded on day 0. On day 1 test compounds are added to triplicate wells in a final volume of 10 μL media. Initial cell density for each cell line is measured on day 1 by adding 10 μL MTS mixture (see below), incubating for 4 h and recording absorbance at 490 nm (A490). Two or three days after test compound addition, 10 μL/well of MTS mixture is added to the test plates and A490 was read 4 h later. A490 values for wells containing cells are corrected for media absorbance, then normalized to initial density readings to determine percent net growth. Percent net growth is calculated as (A490+drug−A490 initial)/(A490—drug—A490 initial). Graphs of percent net growth as a function of compound concentration are used to calculate concentrations resulting in 50% growth inhibition (IC50). MTS mixture is prepared fresh on day of addition to cell plates at a ratio of 10 μL of a 0.92 mg/mL solution of phenazine methosulfate (PMS) to 190 μL of a 2 mg/mL solution of MTS (3-(4,5-dimethylthiazol-2-yl)-5-(3-carboxymethoxyphenyl)-2-(4-sulfophenyl)-2H-tetrazolium, inner salt). PMS and MTS solutions are prepared in buffered saline containing 0.2 g/L KCl, 8.0 g/L NaCl, 0.2 g/L KH2PO4, 1.15 g/L Na2HPO4, 133 mg/L CaCl2.2H2O, 100 mg/L MgCl2.6H2O, (pH=7.35) and stored as foil-wrapped aliquots at −20° C. Test compounds are prepared as stock solutions in DMSO. Test compound dilutions are made in 2% DMSO/cell maintenance media and diluted into assay plates to give 0.1% DMSO final in all wells.

Where two headings read alike, the source gives them in different places.

Turning to `C=C/C=C\[C@H](C)[C@H](OC(N)=O)[C@@H](C)[C@H](O)[C@@H](C)C/C(C)=C\[C@H](C)[C@@H](O)[C@@H](C)/C=C\[C@@H](O)C[C@@H]1OC(=O)[C@H](C)[C@@H](O)[C@H]1C` [discodermolide, (+)-Discodermolide], the IC50 in the test with HCT-15 colon cells (HCT-15, 120 h) is around 8 nM; in the test on PTX-22 cells (Homo sapiens, 72 h, read-out: 72 hour IC50, PTX-22 cells, single value given) it was 30 nM; with PTX-22 cells (Homo sapiens, 72 h, read-out: IC50 cell proliferation, PTX-22 cells, 72 h exposure, two independent experiments) it was 23 nM; in the test with PTX-22 cells (read-out: IC50 cell proliferation, PTX-22 cells, 72 h exposure, two independent experiments), 37 nM.

As for `CC(=O)O[C@H]1C(=O)[C@@]2(C)[C@H]([C@H](OC(=O)c3ccccc3)[C@]3(O)C[C@H](OC(=O)[C@H](O)[C@@H](NC(=O)c4ccccc4)c4ccccc4)C(C)=C1C3(C)C)[C@]1(OC(C)=O)CO[C@@H]1C[C@@H]2O` [paclitaxel, reference compound], the IC50 in the test on HCT-15 colon cells (120 h, HCT-15 colon cells, 5 days incubation) is around 120 nM; in the test with PTX-22 cells (Homo sapiens, 72 h, PTX-22 cells, single value given, read-out: 72 hour IC50), 80 nM. For the same compound, the “fold less sensitive, PTX-22 versus 1A9” value with PTX-22 cells (from the 72 hour IC50 values) was determined as 13 fold.

The values above are taken from patent US6774143B1, “Method for treating cells resistant to antineoplastic agents” (Novartis AG, priority 2003, dated 2004).
